From the NIST ThermoML archive (doi:10.1016/j.jct.2005.06.001)
“And” between values parts separate entries of the source, which are not always exact repeats. Equal values may be shown once. ± gives the expanded uncertainty stated by the source.

Conditions: Crystal; for vapor or sublimation pressure: Calculated from knudsen effusion weight loss; for Normal melting temperature: visual observation

For `CCc1ccc2cc3ccccc3cc2c1` [2-ethylanthracene], the “vapor or sublimation pressure” value (343.27 K) was 0.000164 ± 8e-06 kPa and 0.000165 ± 8e-06 kPa, the “vapor or sublimation pressure” value (345.13 K) was 0.000203 ± 1e-05 kPa and 0.0002 ± 1e-05 kPa and the “vapor or sublimation pressure” value (347.1 K) was 0.000239 ± 1.2e-05 kPa and 0.000235 ± 1.2e-05 kPa and 0.000241 ± 1.2e-05 kPa. For the same compound, the “vapor or sublimation pressure” value (349.26 K) was 0.000306 ± 1.5e-05 kPa and 0.000309 ± 1.5e-05 kPa and 0.000301 ± 1.5e-05 kPa, the “vapor or sublimation pressure” value (351.15 K) was 0.000378 ± 1.9e-05 kPa and 0.000372 ± 1.9e-05 kPa and 0.00037 ± 1.9e-05 kPa and the “vapor or sublimation pressure” value (353.11 K) was 0.000465 ± 2.3e-05 kPa and 0.000456 ± 2.3e-05 kPa and 0.000458 ± 2.3e-05 kPa. For the same compound, the “vapor or sublimation pressure” value (355.27 K) was 0.00056 ± 2.8e-05 kPa and 0.000562 ± 2.8e-05 kPa and 0.000569 ± 2.9e-05 kPa, the “vapor or sublimation pressure” value (357.07 K) was 0.000684 ± 3.4e-05 kPa and 0.000668 ± 3.3e-05 kPa and the “vapor or sublimation pressure” value (359.05 K) was 0.000828 ± 4.1e-05 kPa and 0.000833 ± 4.2e-05 kPa and 0.000824 ± 4.1e-05 kPa. It also gave a Normal melting temperature of 154.5 ± 0.5 °C.

In the case of `Cc1c2ccccc2cc2ccccc12` [9-methylanthracene], the “vapor or sublimation pressure” value (329.16 K) is reported as 0.000185 ± 9e-06 kPa and 0.000194 ± 1e-05 kPa and 0.000184 ± 9e-06 kPa, the “vapor or sublimation pressure” value (331.19 K) is reported as 0.000237 ± 1.2e-05 kPa and 0.000244 ± 1.2e-05 kPa and 0.000236 ± 1.2e-05 kPa and the “vapor or sublimation pressure” value (333.17 K) is reported as 0.000271 ± 1.4e-05 kPa and 0.000297 ± 1.5e-05 kPa and 0.000286 ± 1.4e-05 kPa. The “vapor or sublimation pressure” value (335.16 K) was 0.00036 ± 1.8e-05 kPa and 0.00035 ± 1.8e-05 kPa and 0.000345 ± 1.7e-05 kPa, the “vapor or sublimation pressure” value (337.15 K) was 0.000427 ± 2.1e-05 kPa and 0.00045 ± 2.3e-05 kPa and 0.000435 ± 2.2e-05 kPa and the “vapor or sublimation pressure” value (339.16 K) was 0.000562 ± 2.8e-05 kPa and 0.000577 ± 2.9e-05 kPa and 0.000559 ± 2.8e-05 kPa. The “vapor or sublimation pressure” value (341.17 K) was 0.000666 ± 3.3e-05 kPa and 0.000681 ± 3.4e-05 kPa and 0.00066 ± 3.3e-05 kPa, the “vapor or sublimation pressure” value (343.21 K) was 0.000829 ± 4.2e-05 kPa and 0.000851 ± 4.3e-05 kPa and 0.000821 ± 4.1e-05 kPa and the “vapor or sublimation pressure” value (345.19 K) was 0.001004 ± 0.0001 kPa and 0.00104 ± 0.00011 kPa and 0.001011 ± 0.0001 kPa. The Normal melting temperature was 81.7 ± 0.5 °C.

For `Cc1c2ccccc2c(C)c2ccccc12` [9,10-dimethylanthracene], the “vapor or sublimation pressure” value (363.18 K) was 0.000229 ± 1.1e-05 kPa and 0.000242 ± 1.2e-05 kPa and 0.000213 ± 1.1e-05 kPa, the “vapor or sublimation pressure” value (365.2 K) was 0.000287 ± 1.4e-05 kPa and 0.000302 ± 1.5e-05 kPa and 0.000271 ± 1.4e-05 kPa and the “vapor or sublimation pressure” value (367.18 K) was 0.000344 ± 1.7e-05 kPa and 0.00036 ± 1.8e-05 kPa and 0.000332 ± 1.7e-05 kPa. For the same compound, the “vapor or sublimation pressure” value (369.18 K) was 0.000444 ± 2.2e-05 kPa and 0.00041 ± 2.1e-05 kPa and 0.000425 ± 2.1e-05 kPa, the “vapor or sublimation pressure” value (371.2 K) was 0.000498 ± 2.5e-05 kPa and 0.00053 ± 2.7e-05 kPa and 0.000494 ± 2.5e-05 kPa and the “vapor or sublimation pressure” value (373.19 K) was 0.000613 ± 3.1e-05 kPa and 0.000654 ± 3.3e-05 kPa and 0.00061 ± 3.1e-05 kPa. The “vapor or sublimation pressure” value (375.18 K) was 0.000736 ± 3.7e-05 kPa and 0.000761 ± 3.8e-05 kPa and 0.00071 ± 3.6e-05 kPa, the “vapor or sublimation pressure” value (377.17 K) was 0.00088 ± 4.4e-05 kPa and 0.000913 ± 4.6e-05 kPa and 0.000841 ± 4.2e-05 kPa and the “vapor or sublimation pressure” value (378.98 K) was 0.001057 ± 0.00011 kPa and 0.001092 ± 0.00011 kPa and 0.001008 ± 0.0001 kPa. The Normal melting temperature was 186.4 ± 0.5 °C.
